Experimental findings from a melting point compilation (Tetko et al.; mined from patent text by program, amines drawn as free bases though some values may be those of a salt) are described below.

As for `CCCCc1nn(-c2ccccc2C(F)(F)F)c(=O)n1Cc1ccc(-c2ccccc2S(=O)(=O)NC(=O)c2ccccc2)cc1`, the melting point lay in the range of 91 to 93 °C.

The compound `CCN(CC)c1ccc2nc3c4ccccc4c(=Nc4ccc5ccccc5n4)cc-3oc2c1` showed a melting point of 234 to 236 °C.

In turn, `Cc1ccc(C(=O)Nc2c(NC(=O)CN(C)C)ccc3c2C(=O)c2ccccc2C3=O)cc1` had a melting point of 190 to 191 °C.

For the compound `COc1nc(C(F)(F)F)cc(=O)n1-c1cc(C(=O)OC(C)C)c(Cl)cc1F`, the melting point was 121 to 123 °C.

Turning to `Cc1cc(-c2cnn3c(O)ncnc23)ccc1S(C)=O` (centres undefined), the melting point fell in the range of 281 to 282 °C.

`N#Cc1ncc(Cl)cc1OC1SCC(O)C(O)C1O` (centres undefined): the melting point worked out at 122 °C.

In turn, `CCOc1c(C(=O)O)oc2c3ccccc3n(-c3ccccc3)c12` registered a melting point of 146 to 147 °C.

In turn, `O=[N+]([O-])c1c(Br)nn(CCO)c1NCc1ccccc1` came in with a melting point of 133 to 135 °C.

In the case of `CCCCCc1cnc(-c2ccc(N=C=S)cc2)nc1`, the melting point amounted to 46 °C.

In turn, `Nc1ccc2c(c1)S(=O)(=O)NCCO2` came in with a melting point of 179 °C.

`CS(=O)(=O)c1ccc(-c2cnn(C3CCCC3)c(=O)c2-c2ccc(F)cc2)cc1` gave a melting point of 191 to 193 °C.

Turning to `COCCNC(=O)c1cccc(-c2cccc3c(C)c(Cc4ccc(F)c(Cl)c4)sc23)c1`, the melting point is 141 to 142 °C.

Compound `CCc1c(CCNC(=O)CCCCC(=O)OC)ccc(OC)c1OC` returned a melting point of 37 to 39 °C.

On to `O=C(CCn1c2ccccc2c2ccccc21)OCCn1c2ccccc2c2ccccc21`, for which the melting point lay within 163 to 165 °C.

With `Cc1c(CCN(C)C(=O)OC(C)(C)C)c2cc(S(=O)(=O)c3ccccc3)ccc2n1C`, the melting point lay within 147 to 149 °C.

`CN1CC=C(C(=O)N2c3ccccc3C(=O)Nc3cccc(Cl)c32)CC1` registered a melting point of 296 °C.

Turning to `C[C@@H](O)CNc1c(-c2ccc(F)cc2)c(=O)c1=O`, the melting point was 235 to 237 °C.

For the compound `Cc1onc(-c2ccccc2)c1C(=O)NCCCCl`, the melting point lay within 122 to 124 °C.

The compound `CCCCC1(CCCC)CS(=O)(=O)c2ccc(N(C)C)cc2[C@H](c2ccc(OCCOCCC(C(=O)O)C(=O)O)cc2)[C@@H]1O` returned a melting point of 120 °C.

On to `CCOC(=O)c1cc(=O)cc(C)o1`, for which the melting point is 35 to 38 °C.

In the case of `NC(=O)c1ccc(OCC2CO2)c(I)c1` (centres undefined), the melting point lay within 149 to 151 °C.

In turn, `O=C(CCCCBr)NNC(=O)N1Cc2ccccc2Oc2ccc(Cl)cc21` returned a melting point of 147 to 149 °C.

As to `CC(C(=O)Nc1cccc2c1C(=O)c1c(NC(=O)C(C)N(C)C)cccc1C2=O)N(C)C` (centres undefined), the melting point is 116 to 117 °C.

`CCc1ccc(Oc2cc3c(cc2Cl)C=C(C(=O)O)C(C(F)(F)F)O3)cc1` (centres undefined): the melting point came to 196 °C.

`CC(O)(CCC#N)c1ccc(-c2ccc(F)cc2)cc1` (centres undefined) yielded a melting point of 118 to 120 °C.

Consider `Cc1cccc(Nc2ncnc3ccc(-n4cnc5ccccc54)cc23)c1`, for which the melting point was in the range of 245 to 246 °C.

`CSc1ncc(C(C)O)c(N)n1` (centres undefined) returned a melting point of 140 to 142 °C.

In turn, `Fc1nc(NCc2cccnc2)c2nc[nH]c2n1` had a melting point of 218 to 220 °C.

Compound `CCCCNc1ccc(Nc2ccccc2)c2c1C(=O)c1ccccc1C2=O` had a melting point of 118 to 120 °C.

For the compound `CCCCn1c2ccc(C)cc2c(=O)c2c1cnn2C`, the melting point came to 262 °C.

Compound `O=C(Nc1ccc(-n2nc(C(F)(F)F)cc2C(F)(F)F)cc1)c1ccc[nH]1` had a melting point of over 240 °C.

Regarding `Cc1cnccc1CO`, the melting point was in the range of 77 to 80 °C.

As for `c1ccc(CCCn2c(-c3ccc4c(c3)OCO4)nc3ccccc32)cc1`, the melting point lay within 99.8 to 100 °C.

`O=C1CCCC(=O)C1c1ccccc1Cl` had a melting point of 148 to 149 °C.

For `COC(=O)c1ccc([N+](=O)[O-])[nH]1`, the melting point fell in the range of 178 to 179 °C.

The compound `Cc1ccc(NC(=O)c2ccc(CN3CCN(C)CC3)c(C(F)(F)F)c2)cc1-c1ccc2ccncc2c1` showed a melting point of 153 to 154 °C.

`CS(=O)(=O)OCc1cc(-c2ccc3c(c2)CCO3)nn(CC=Cc2ccc(Cl)cc2)c1=O` displayed a melting point of 135 to 140 °C.

`COc1ccc(-c2c3c(cc4ccc(OC)c(OC)c24)C(=O)NC3=O)cc1` returned a melting point of 288 to 290 °C.

The compound `COc1c(F)cc(-c2c(-c3ccc(S(C)(=O)=O)cc3)cnn(-c3ccc(F)c(Cl)c3)c2=O)cc1F` came in with a melting point of 195 to 197 °C.

As to `CC1=CC(OC(=O)c2ccc([N+](=O)[O-])cc2)C2OC1(OCCO)CC2(C)C` (centres undefined), the melting point lay within 166 to 168 °C.

`CCCCNC(=O)ON1C(C)(C)CC(OC(=O)c2ccccc2)CC1(C)C` had a melting point of 126 to 127 °C.

On to `CN(C)S(=O)(=O)c1cccc(-c2ccnc(C(=O)N(O)Cc3ccccc3)c2)c1`, for which the melting point lay in the range of 110 to 115 °C.

The compound `Nc1cccc(-c2ccc(-c3ccc(CCN4CC5C(N)C5C4)cc3)cc2)n1` (centres undefined) yielded a melting point of 205 °C.

`CC(=O)Oc1c(-c2ccccc2)sc2nc(C(C)(C)C)ccc12` displayed a melting point of 128 to 129 °C.

Consider `Cc1nc2cc(C)c(C)cc2c(=O)[nH]1`, for which the melting point lay in the range of 310 to 312 °C.

`COc1cc(CBr)cc2c(Br)ccc(OC(C)C)c12` yielded a melting point of 126 °C.

Consider `CN(C)c1ccc(NC(=O)N(C[C@@H]2CCC[C@H](CN(C(=O)Nc3ccc(N(C)C)cc3)C3CCCCCCC3)C2)C2CCCCCCC2)cc1`, for which the melting point lay in the range of 147 to 149 °C.

Turning to `Nc1ccc(-c2cnc(COCc3cc4ccccc4o3)o2)cc1`, the melting point was 96 to 98 °C.

For `CC(=O)N1Cc2c(-c3noc(C4CC4)n3)ncn2-c2cccc(F)c21`, the melting point was 208 to 210 °C.

In turn, `N#CC(=Cc1cccnc1)c1cc(Cl)cc(Cl)c1` showed a melting point of 139 to 141 °C.

The compound `CCCN(CCC)CCOc1ccc(NC(=O)c2c(OC)cccc2OC)cc1` yielded a melting point of 116 to 120 °C.

With `O=C(O)Cc1ccc2c3c(ccc2c1)OCC3`, the melting point lay within 181 to 183 °C.

`CCc1nc2c(N)nc3ccccc3c2n1CC1(O)CCOCC1` had a melting point of over 250 °C.

Turning to `CC1=C(C#N)C(c2cccc3ncc(Cc4ccccc4)cc23)C(C(=O)OC(C)C)=C(C)N1` (centres undefined), the melting point was in the range of 188 to 190 °C.

In turn, `CCSc1nn2c(-c3ccc(OC)cc3)nnc2c2ccccc12` had a melting point of 176 to 178 °C.

Take `CC(C)Cn1cnc2c(N)nc3ccc(CCCN4CCCC4=O)cc3c21`: the melting point lay within 174 to 175 °C.

As for `Nc1ccc2ccc(Oc3ccc(Cl)cc3)nc2n1`, the melting point stood at 177 °C.

Take `COc1cc2ncc(C#N)c(Nc3cc(Cl)c(O)c(Cl)c3)c2cc1OC`: the melting point was over 250 °C.

`O=C1NC(=O)C(c2cn(CCCO)c3ccc(F)cc23)=C1c1cccc(NCC(O)CO)c1` (centres undefined) had a melting point of 118 to 125 °C.

In turn, `C=C(CCC)C(=O)c1ccc(OCC(=O)O)c(Cl)c1Cl` came in with a melting point of 111 to 113 °C.

On to `COCCNC(=O)c1cc(-c2ccccc2)c(=O)n2ccc3ccsc3c12`, for which the melting point fell in the range of 201 to 202 °C.

`CN(C)c1ccc(-c2cc3ncc(C#N)c(Cl)c3s2)cc1` showed a melting point of 270 to 272 °C.

As for `O=C(CCC1CCCCCCCCCCC1)C1=C(O)CSC1=O`, the melting point was 60 to 62 °C.

Consider `CCOc1ccc(C2CC(C(C)(C)C)=NN2c2ccc(C(=O)O)cc2)cc1` (centres undefined), for which the melting point came to 160 °C.

`Cc1noc(C)c1S(=O)(=O)n1cnc2cnccc21` came in with a melting point of 130 to 135 °C.

`CSc1ccc(F)c(C#N)c1` displayed a melting point of 61.7 to 62.7 °C.

The compound `CNC(=O)N=C(NC(=O)Nc1ccc(Cl)cc1)OC` had a melting point of 169 to 171 °C.

`CCOC(=O)c1ccc(OCc2csc3nc(C(=O)OCC)[nH]c(=O)c23)cc1` displayed a melting point of 205 to 208 °C.

As to `CN1C(=O)C(C(=O)Nc2ccc(Oc3ccc(C(F)(F)F)cn3)cc2)C(=O)N(C)C1=S`, the melting point lay within 156 to 158 °C.

`COc1ccccc1CN[C@H]1CCCN(CCO)[C@H]1c1ccccc1` (relative stereo) displayed a melting point of 148 to 149 °C.

`COc1ccc2c(c1)CC(O)C2` (centres undefined) returned a melting point of 67 to 69 °C.

Consider `O=C(O)c1csc(-c2ccc3cc(O)c(C45CC6CC(CC(C6)C4)C5)cc3c2)c1`, for which the melting point lay within 312 to 314 °C.

Take `O=S(=O)(CC=C1CCC1)c1ccccc1`: the melting point lay in the range of 76 to 78 °C.

For the compound `COc1ccc(NN=C2CCC3(CC2)OCCO3)cc1`, the melting point fell in the range of 168 to 169 °C.

Take `Cc1ccc(-n2c(-c3ccccc3)c(Br)c(Br)c2-c2ccccc2)cc1`: the melting point fell in the range of 227 to 228 °C.

For the compound `CCCCc1cn(C)cc(-c2cccc(C(F)(F)F)c2)c1=O`, the melting point fell in the range of 82.5 to 84 °C.

Compound `CCOC(=O)CCNC(=O)NC1CCN(c2ccc(C(=N)NOC(=O)OCC(Cl)(Cl)Cl)cc2)C1=O` (centres undefined) yielded a melting point of 196 to 198 °C.

`CCC(CC)c1nc(CN(C)C(=O)N[C@H](C(=O)N[C@@H](Cc2ccccc2)C[C@H](O)[C@H](Cc2ccccc2)NC(=O)OCc2cncs2)C(C)C)cs1` yielded a melting point of 64 to 66 °C.

In turn, `Cc1nn(-c2ccc(C(F)(F)F)cn2)cc1COc1ccc(OCC(=O)O)cc1` came in with a melting point of 138 to 139 °C.

Regarding `Cc1c(C(=O)O)ccc2c1C(Cl)C(Cl)CS2(=O)=O` (centres undefined), the melting point was in the range of 236 to 244 °C.

`NC1=NS(=O)N=C1NCCCN(Cc1ccccn1)c1ccccn1` (centres undefined) came in with a melting point of 192 to 193 °C.

In turn, `CC12C=CC(=O)CC1CCC1C2CCC2(C)C1CCC2(C)O` (centres undefined) returned a melting point of 140 to 142 °C.

In turn, `O=Cc1csc2cc([N+](=O)[O-])ccc12` showed a melting point of 187 to 192 °C.

For the compound `O=C(NCc1ccc(Cl)cc1)c1cnc2sc(C(=O)N3CCOCC3)cc2c1O`, the melting point was 217 to 219 °C.

The compound `Cc1c(/C=C/C(=O)c2cccc3ccccc23)ncn1C(c1ccccc1)(c1ccccc1)c1ccccc1` displayed a melting point of 184 to 186 °C.

The compound `CCCCCCCCCCCCCCCCCC(=O)OC1CCN(O)CC1` registered a melting point of 75 to 80 °C.

The compound `CCCCC=C1SC(=O)N(CCCCOc2cccn3ccnc23)C1=O` returned a melting point of 64 to 65 °C.

In turn, `Cc1nc(N2CCCC(C(O)c3ccccc3)C2=O)sc1C(=O)NCc1ccccc1` (centres undefined) had a melting point of 74 to 75 °C.

Consider `COC(=O)/C=C/c1ccc2c(c1)C(C)(C)CC(=O)N2`, for which the melting point lay in the range of 174 to 175 °C.
